# Measured values reported in patent publication US4988687A, “Cephalosporin derivatives, and antibacterial agents” (priority 1986, dated 1991).
# Read-outs that look alike come from different tables or passages of the source.
# Columns and labels:
# [1] = system: S. aureus 209P NIHJ-JC1; assay: agar plate dilution method, MIC against S. aureus 209P NIHJ-JC1; assay type: cell-based; conditions: Staphylococcus aureus, 16 h, read-out: Minimum Inhibitory Concentration (MIC)
# Protocol: (§1) The in vitro antibacterial activities of the compounds of the present invention against various microorganisms, were measured by the following agar plate dilution method. One platinum loopfull of each test microorganism incubated overnight in Mueller Hinton broth, was inoculated to Mueller Hinton agar (inoculum size: 10^6 CFU/ml) Such culture media containing various antibiotics in various concentrations were prepared After incubation at 37° C. for 16 hours, the minimum inhibitory concentrations (MIC: μg/ml) were measured. As comparative compounds, cefotaxime, oeftazidime and the compounds disclosed in Example 2 of Japanese Unexamined Patent Publication No. 215690/1985 e.g. sodium 7-[2-(2-aminothiazol-4-yl)-2-ethoxyiminoacetamido]-3-(1-carboxylatemethylpyridinio-4-yl)thiomethyl-3-cephem-4-carboxylate (hereinafter referred to simply as "Reference Example A") were employed.
# [2] = system: S. aureus JS1; assay: agar plate dilution method, MIC against S. aureus JS1; assay type: cell-based; conditions: Staphylococcus aureus, read-out: Minimum Inhibitory Concentration (MIC)
# Protocol: as §1
# [3] = system: S. aureus BB5703; assay: agar plate dilution method, MIC against S. aureus BB5703; assay type: cell-based; conditions: Staphylococcus aureus, read-out: Minimum Inhibitory Concentration (MIC)
# Protocol: as §1
# [4] = system: S. epidermidis IAM12012; assay: agar plate dilution method, MIC against S. epidermidis IAM12012; assay type: cell-based; conditions: Staphylococcus epidermidis, IAM12012, 16 h, read-out: Minimum Inhibitory Concentration (MIC)
# Protocol: as §1
# [5] = system: M. luteus ATCC9341; assay: agar plate dilution method, MIC against M. luteus ATCC9341; assay type: cell-based; conditions: Micrococcus luteus, read-out: Minimum Inhibitory Concentration (MIC)
# Protocol: as §1
# [6] = system: C. freundii GN346/16; assay: agar plate dilution method, MIC against C. freundii GN346/16; assay type: cell-based; conditions: Citrobacter freundii, read-out: Minimum Inhibitory Concentration (MIC)
# Protocol: as §1
# [7] = system: E. coli NIHJ JC2; assay: agar plate dilution method, MIC against E. coli NIHJ JC2; assay type: cell-based; conditions: Escherichia coli, read-out: Minimum Inhibitory Concentration (MIC)
# Protocol: as §1
# [8] = system: E. coli CSH2 (RK1); assay: agar plate dilution method, MIC against E. coli CSH2 (RK1); assay type: cell-based; conditions: Escherichia coli, 16 h, read-out: Minimum Inhibitory Concentration (MIC)
# Protocol: as §1
# [9] = system: K. pneumoniae PCI-602; assay: agar plate dilution method, MIC against K. pneumoniae PCI-602; assay type: cell-based; conditions: Klebsiella pneumoniae, PCI602, 16 h, read-out: Minimum Inhibitory Concentration (MIC)
# Protocol: as §1
# [10] = system: E. coli CSH(RE45); assay: agar plate dilution method, MIC against E. coli CSH(RE45); assay type: cell-based; conditions: Escherichia coli, 16 h, read-out: Minimum Inhibitory Concentration (MIC)
# Protocol: as §1
# [11] = system: K. oxytoca GN10650; assay: agar plate dilution method, MIC against K. oxytoca GN10650; assay type: cell-based; conditions: Klebsiella oxytoca, read-out: Minimum Inhibitory Concentration (MIC)
# Protocol: as §1
# [12] = system: K. pneumoniae No. 42; assay: agar plate dilution method, MIC against K. pneumoniae No. 42; assay type: cell-based; conditions: Klebsiella pneumoniae, read-out: Minimum Inhibitory Concentration (MIC)
# Protocol: as §1
# [13] = system: P. vulgaris HX-19; assay: agar plate dilution method, MIC against P. vulgaris HX-19; assay type: cell-based; conditions: Proteus vulgaris, HX19, 16 h, read-out: Minimum Inhibitory Concentration (MIC)
# Protocol: as §1
# [14] = system: P. vulgaris No. 33; assay: agar plate dilution method, MIC against P. vulgaris No. 33; assay type: cell-based; conditions: Proteus vulgaris, read-out: Minimum Inhibitory Concentration (MIC)
# Protocol: as §1
# [15] = system: S. marcescens IAM 1184; assay: agar plate dilution method, MIC against S. marcescens IAM 1184; assay type: cell-based; conditions: Serratia marcescens, read-out: Minimum Inhibitory Concentration (MIC)
# Protocol: as §1
# [16] = system: C. freundii GN346; assay: agar plate dilution method, MIC against C. freundii GN346; assay type: cell-based; conditions: Citrobacter freundii, read-out: Minimum Inhibitory Concentration (MIC)
# Protocol: as §1
# [17] = system: E. cloacae 963; assay: agar plate dilution method, MIC against E. cloacae 963; assay type: cell-based; conditions: read-out: Minimum Inhibitory Concentration (MIC)
# Protocol: as §1
# [18] = system: E. cloacae Nek 39; assay: agar plate dilution method, MIC against E. cloacae Nek 39; assay type: cell-based; conditions: Enterobacter cloacae, read-out: Minimum Inhibitory Concentration (MIC)
# Protocol: as §1
# [19] = system: E. coli GN5482; assay: agar plate dilution method, MIC against E. coli GN5482; assay type: cell-based; conditions: Escherichia coli, read-out: Minimum Inhibitory Concentration (MIC)
# Protocol: as §1
# [20] = system: M. morganii GN5407; assay: agar plate dilution method, MIC against M. morganii GN5407; assay type: cell-based; conditions: Morganella morganii, read-out: Minimum Inhibitory Concentration (MIC)
# Protocol: as §1
# [21] = system: S. marcescens No. 16-2; assay: agar plate dilution method, MIC against S. marcescens No. 16-2; assay type: cell-based; conditions: Serratia marcescens, NO.162, 16 h, read-out: Minimum Inhibitory Concentration (MIC)
# Protocol: as §1
# [22] = system: Ps. aeruginosa IFO3445; assay: agar plate dilution method, MIC against Ps. aeruginosa IFO3445; assay type: cell-based; conditions: Pseudomonas aeruginosa, read-out: Minimum Inhibitory Concentration (MIC)
# Protocol: as §1
# [23] = system: Ps. aeruginosa AK 109; assay: agar plate dilution method, MIC against Ps. aeruginosa AK 109; assay type: cell-based; conditions: Pseudomonas aeruginosa, AK109, 16 h, read-out: Minimum Inhibitory Concentration (MIC)
# Protocol: as §1
# [24] = system: Ps. aeruginosa AKR17; assay: agar plate dilution method, MIC against Ps. aeruginosa AKR17; assay type: cell-based; conditions: Pseudomonas aeruginosa; Ps. aeruginosa AKR17; 10^6 CFU/ml, 37° C., 16 hours; read-out: Minimum Inhibitory Concentration (MIC)
# Protocol: as §1
# [25] = system: Ps. cepacia 23; assay: agar plate dilution method, MIC against Ps. cepacia 23; assay type: cell-based, Pseudomonas cepacia; conditions: read-out: Minimum Inhibitory Concentration (MIC)
# Protocol: as §1
# [26] = system: Ps. maltophilia GN 12873; assay: agar plate dilution method, MIC against Ps. maltophilia GN 12873; assay type: cell-based, Pseudomonas maltophilia; conditions: Stenotrophomonas maltophilia, read-out: Minimum Inhibitory Concentration (MIC)
# Protocol: as §1
# [27] = system: A. calcoaceticus No. 4; assay: agar plate dilution method, MIC against A. calcoaceticus No. 4; assay type: cell-based; conditions: Acinetobacter calcoaceticus, read-out: Minimum Inhibitory Concentration (MIC)
# Protocol: as §1
# [28] = S. aureus JS1 (methicilline resistant; lactamase-producing strain), 10^6 CFU/ml, 37° C., 16 hours
# [29] = C. freundii GN346/16, 10^6 CFU/ml, 37° C., 16 hours
# [30] = NIHJJC2, E. coli NIHJ JC2, 10^6 CFU/ml, 37° C., 16 hours
# [31] = K. oxytoca GN10650 (lactamase-producing strain), 10^6 CFU/ml, 37° C., 16 hours
# [32] = K. pneumoniae No. 42 (lactamase-producing strain), 10^6 CFU/ml, 37° C., 16 hours
# [33] = C. freundii GN346 (lactamase-producing strain), 10^6 CFU/ml, 37° C., 16 hours
# [34] = Enterobacter cloacae, E. cloacae 963, 10^6 CFU/ml, 37° C., 16 hours
# [35] = NEK39, E. cloacae Nek 39 (lactamase-producing strain), 10^6 CFU/ml, 37° C., 16 hours
# [36] = E. coli GN5482 (lactamase-producing strain), 10^6 CFU/ml, 37° C., 16 hours
# [37] = M. morganii GN5407 (lactamase-producing strain), 10^6 CFU/ml, 37° C., 16 hours
# [38] = GN12873, Ps. maltophilia GN 12873 (lactamase-producing strain), 10^6 CFU/ml, 37° C., 16 hours
# [39] = A. calcoaceticus No. 4, 10^6 CFU/ml, 37° C., 16 hours
smiles,measurement,setting,value
"CO/N=C(\C(=O)N[C@@H]1C(=O)N2C(C(=O)O)=C(COC(C)=O)CS[C@H]12)c1csc(N)n1 [Cefotaxime, cefotaxime, reference compound]",MIC,[1],1.56 µg/mL
same,MIC,[2]; [28],25 µg/mL
same,MIC,"[3]; BB5703, 16 h",3.12 µg/mL
same,MIC,[4],1.56 µg/mL
same,MIC,"[5]; M. luteus ATCC9341, 10^6 CFU/ml, 37° C., 16 hours",0.1 µg/mL
same,MIC,[6]; [29],0.1 µg/mL
same,MIC,[7]; [30],0.05 µg/mL
same,MIC,[8],0.025 µg/mL
same,MIC,[9],< 0.006 µg/mL
same,MIC,[10],0.1 µg/mL
same,MIC,[11]; [31],0.39 µg/mL
same,MIC,[12]; [32],0.05 µg/mL
same,MIC,[13],< 0.006 µg/mL
same,MIC,"[14]; P. vulgaris No. 33 (lactamase-producing strain), 10^6 CFU/ml, 37° C., 16 hours",0.025 µg/mL
same,MIC,"[15]; IAM1184, S. marcescens IAM 1184, 10^6 CFU/ml, 37° C., 16 hours",0.1 µg/mL
same,MIC,[16]; [33],12.5 µg/mL
same,MIC,[17]; [34],0.1 µg/mL
same,MIC,[18]; [35],3.12 µg/mL
same,MIC,[19]; [36],0.39 µg/mL
same,MIC,[20]; [37],0.1 µg/mL
same,MIC,[21],12.5 µg/mL
same,MIC,"[22]; IFO3445, 16 h",12.5 µg/mL
same,MIC,[23],12.5 µg/mL
same,MIC,[24],> 100 µg/mL
same,MIC,"[25]; Burkholderia cepacia, 23, 16 h",6.25 µg/mL
same,MIC,[26]; [38],> 100 µg/mL
same,MIC,[27]; [39],25 µg/mL
"CC(C)(O/N=C(\C(=O)N[C@@H]1C(=O)N2C(C(=O)[O-])=C(C[n+]3ccccc3)CS[C@H]12)c1csc(N)n1)C(=O)O [Ceftazidime, ceftazidime, reference compound]",MIC,[1],6.25 µg/mL
same,MIC,"[2]; JS1, 16 h",25 µg/mL
same,MIC,"[3]; BB5703, 16 h",12.5 µg/mL
same,MIC,[4],3.12 µg/mL
same,MIC,"[5]; ATCC9341, 16 h",0.78 µg/mL
same,MIC,"[6]; GN346, 16 h",0.2 µg/mL
same,MIC,"[7]; NIHJJC2, 16 h",0.2 µg/mL
same,MIC,[8],0.1 µg/mL
same,MIC,[9],< 0.006 µg/mL
same,MIC,[10],0.1 µg/mL
same,MIC,"[11]; GN10650, 16 h",0.2 µg/mL
same,MIC,"[12]; NO.42, 16 h",0.39 µg/mL
same,MIC,[13],0.025 µg/mL
same,MIC,"[14]; NO.33, 16 h",0.05 µg/mL
same,MIC,"[15]; IAM1184, 16 h",0.025 µg/mL
same,MIC,"[16]; GN346, 16 h",25 µg/mL
same,MIC,"[17]; Enterobacter cloacae, 963, 16 h",0.2 µg/mL
same,MIC,"[18]; NEK39, 16 h",3.12 µg/mL
same,MIC,"[19]; GN5482, 16 h",1.56 µg/mL
same,MIC,"[20]; GN5407, 16 h",0.1 µg/mL
same,MIC,[21],1.56 µg/mL
same,MIC,"[22]; Ps. aeruginosa IFO3445, 10^6 CFU/ml, 37° C., 16 hours",0.39 µg/mL
same,MIC,[23],1.56 µg/mL
same,MIC,[24],> 100 µg/mL
same,MIC,"[25]; Burkholderia cepacia, Ps. cepacia 23, 10^6 CFU/ml, 37° C., 16 hours",0.78 µg/mL
same,MIC,"[26]; GN12873, 16 h",100 µg/mL
same,MIC,"[27]; NO.4, 16 h",6.25 µg/mL
"C=C(O/N=C(\C(=O)NC1C(=O)N2C(C(=O)[O-])=C(CSc3cc[n+](CC(=O)O)cc3)CSC12)c1csc(N)n1)C(=O)O (stereo not drawn) [Example 1, 7-[2-(2-aminothiazol-4-yl)-2-(1-carboxy-1-vinyloxyimino)acetamido]-3-(1-carboxymethylpyridinio-4-yl)thiomethyl-4-carboxylate (syn-isomer)]",MIC,[1],3.12 µg/mL
same,MIC,[2]; [28],50 µg/mL
same,MIC,"[3]; S. aureus BB5703, 10^6 CFU/ml, 37° C., 16 hours",25 µg/mL
same,MIC,[4],1.56 µg/mL
same,MIC,"[5]; ATCC9341, 16 h",1.56 µg/mL
same,MIC,[6]; [29],0.1 µg/mL
same,MIC,[7]; [30],0.1 µg/mL
same,MIC,[8],0.05 µg/mL
same,MIC,[9],< 0.006 µg/mL
same,MIC,[10],0.1 µg/mL
same,MIC,[11]; [31],0.2 µg/mL
same,MIC,[12]; [32],0.2 µg/mL
same,MIC,[13],< 0.006 µg/mL
same,MIC,"[14]; NO.33, 16 h",0.0125 µg/mL
same,MIC,"[15]; IAM1184, 16 h",< 0.006 µg/mL
same,MIC,[16]; [33],25 µg/mL
same,MIC,[17]; [34],0.1 µg/mL
same,MIC,[18]; [35],0.78 µg/mL
same,MIC,[19]; [36],0.2 µg/mL
same,MIC,[20]; [37],0.0125 µg/mL
same,MIC,[21],1.56 µg/mL
same,MIC,"[22]; IFO3445, 16 h",1.56 µg/mL
same,MIC,[23],3.12 µg/mL
same,MIC,[24],> 100 µg/mL
same,MIC,"[25]; Burkholderia cepacia, 23, 16 h",1.56 µg/mL
same,MIC,[26]; [38],> 100 µg/mL
same,MIC,[27]; [39],50 µg/mL
